Assay results: US20040213743A1, “Sensorially active substances embedded in plastic” (priority 1996, published 2004)
Where two headings read alike, the source gives them in different places.

Tests used:
[1] = cited from earlier work
[2] = solubility in plastic and solvents; format: physicochemical; settings: molten flexible PVC
[3] = test system: rats; assay: rats gnawing on denatonium benzoate-treated flexible PVC; format: in vivo
[4] = cited from earlier work; remark: listed apart in the source
[5] = approximately 0.2 grams of denatonium benzoate in 100 grams of clear flexible PVC

## CC[N+](CC)(CC(=O)Nc1c(C)cccc1C)Cc1ccccc1 [denatonium benzoate]
[1]; at concentrations of 0.05%
  skin irritation: does not irritate the skin
[1]; even in fairly high concentrations
  skin irritation: non-irritating to the skin
[2]
  solubility in polyvinyl chloride (PVC): readily dissolves
[2]; listed as Bitrex™
  solubility in polyvinyl chloride (PVC): soluble in PVC
[3]; [5]
  deterrence of gnawing on the PVC: does not deter rats from gnawing and eating the PVC
  effect on rats which ingest the treated PVC: pronounced soporific effect
[3]; approximately 2.5 grams of denatonium benzoate in 100 grams of clear flexible PVC, also when sample thoroughly washed
  deterrence of gnawing on the PVC: quite effective in discouraging rats from gnawing on the plastic
[4]; benzene and chloroform
  solubility in organic solvents: readily soluble
[4]; ether
  solubility in ether: nearly insoluble
